Assay results as given in PubChem BioAssay AID2060358 (Molecular Pharmacology Branch, DTP, NCI, 2025).
Calls of active or inactive are those of the source. How the source made its calls: active means viability on the fitted dose curve at most 10% of control; inactive means the rest.

System: 254851-301-R-J1-PDC spheroids, viability % test/control
Assay: Anticancer human tumor 254851-301-R-J1-PDC patient-derived colon carcinoma cell line growth inhibition [TAK]
Conditions: spheroids with HUVEC and MSC; for IC50: curve of first compound; for viability, T/C: stronger effect = lower value
Text: Combinatorial screen of targeted agents with TAK-243 and ipatasertib in multi-cell type tumor spheroids
A high-throughput screen of multi-cell type tumor spheroids was designed to identify active combinations of targeted small molecules and TAK-243 or ipatasertib. Complex spheroids include a stromal component modeled by human endothelial cells (HUVEC) and fibroblasts modeled by human mesenchymal stem cells (MSCs). The concentration ranges selected for each drug and investigational agent were based upon clinically achievable concentrations if the clinical Cmax of the agent was known.
Compounds. The drugs and investigational agents: TAK-243 (785004), ipatasertib (767898), everolimus (733504), selumetinib (741078), bortezomib (756655), trametinib (758246), ixazomib (758254), vemurafenib (761431), dabrafenib (764134), sapanisertib (764658), alpelisib (765974), and copanlisib (816437), were obtained from the National Cancer Institute (NCI) Developmental Therapeutics Program Chemical Repository. The FDA-approved anticancer drug set is available from the NCI Developmental Therapeutics Program. […] The stock solutions were prepared in dimethyl sulfoxide (DMSO, Sigma-Aldrich, St. Louis, MO, cat. D2650) at 800-fold the tested concentration and stored at -70 degrees C prior to their use. All drugs and investigational agents were tested over a range starting from a high concentration at or near the clinical Cmax and decreasing in half-log increments. If the clinical Cmax for an agent had not been determined, the highest concentration tested was 10 microM.
NCI60 Cell Culture. NCI60 cell lines were obtained from the NCI Developmental Therapeutics Program Tumor Repository. For each lot of cells, the Repository performed Applied Biosystems AmpFLSTR Identifiler testing with PCR amplification to confirm consistency with the published Identifier STR profile for each cell line. Cells were kept in continuous culture for no more than 20 passages. The optimal seeding densities for each of the cell lines at each time point assessed were determined prior to performing the concentration response studies. Briefly, the NCI60 human tumor lines were grown as monolayers in RPMI 1640 medium supplemented with 10% FBS and 2 mmol/L L-glutamine.
An additional 2 lines were from the NCI60 cell line panel including melanomas, MALME-3M and SK-MEL-2. Pooled donor human umbilical vein endothelial cells (HUVEC, Lonza, cat. CC-2519) and human mesenchymal stem cells (hMSC, Lonza, cat. PT-2501) were purchased from Lonza (Walkersville, MD).
PDMR cell lines were grown in complete medium (DC medium): Dulbecco's modified Eagle's medium (DMEM)/F12 supplemented with 5% fetal bovine serum (FBS), 2 mM L-glutamine, 100 U/mL penicillin and 100 µg/ml streptomycin, 0.4 µg/ml hydrocortisone, 10 ng/ml epidermal growth factor (EGF) recombinant human protein, 24 µg/mL adenine, and 0.1 mg/mL primocin. During culture from frozen stock vials, PDMR cells were cultured in the same medium containing 10 µM Y-27632 (see Table 3). The PDCs were cultured in complete DMEM/F12 media without 10 microM Y-27632 dihydrochloride for at least two passages prior to the screen. The pooled donor HUVEC and hMSC were cultured in endothelial cell growth medium 2 (PromoCell, Heidelberg, Germany, cat. C-22011) and mesenchymal stem cell growth medium 2 (PromoCell, cat. C-28009), respectively. For all experiments, HUVEC and hMSC were used at passages </=5.
For the pre-screen, cell seeding densities were determined from a titration spanning the range from 5,000 to 313 cells per well. The mct-spheroids including 60% malignant cells, 25% HUVEC and 15% MSC dispensed as a mixture into U-bottom Ultra-Low Attachment 384-well plates (Corning, NY)
High-throughput Drug Combination Screening.
Prior to their inoculation into 384-well plates, malignant cells, HUVEC, and hMSC were removed from T flasks using TrypLE express (Thermo Fisher Scientific, cat. 12605036) and harvested by centrifugation for 5 min at 233 x g. […]
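Wherever IC50 is given: spheroids exposed to drugs for seven days before viability readout.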
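Wherever viability, T/C is given: spheroids exposed to drugs for seven days before viability readout.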

Compound CC(=O)Nc1cccc(-n2c(=O)n(C3CC3)c(=O)c3c(Nc4ccc(I)cc4F)n(C)c(=O)c(C)c32)c1 + CC(C)NCC(C(=O)N1CCN(c2ncnc3c2C(C)CC3O)CC1)c1ccc(Cl)cc1 has an IC50 (second compound 0.3 µM) of 17.6 nM, an IC50 (second compound 0.949 µM) of 17.6 nM and an IC50 (second compound 3 µM) of 18.6 nM. The IC50 (second compound 9.49 µM) was 17.3 nM, the IC50 (second compound 30 µM) was 12.5 nM and the viability, T/C (second compound 0.3 µM, first compound 94.9 pM) was 115%. It also gave a viability, T/C (second compound 0.3 µM, first compound 0.0003 µM) of 109%, a viability, T/C (second compound 0.3 µM, first compound 0.000949 µM) of 108% and a viability, T/C (second compound 0.3 µM, first compound 0.003 µM) of 116%. For the same compound, the viability, T/C (second compound 0.3 µM, first compound 0.00949 µM) was 95.7%, the viability, T/C (second compound 0.3 µM, first compound 0.03 µM) was 11% and the viability, T/C (second compound 0.949 µM, first compound 94.9 pM) was 111%. It also gave a viability, T/C (second compound 0.949 µM, first compound 0.0003 µM) of 110%, a viability, T/C (second compound 0.949 µM, first compound 0.000949 µM) of 111% and a viability, T/C (second compound 0.949 µM, first compound 0.003 µM) of 102%. For the same compound, the viability, T/C (second compound 0.949 µM, first compound 0.00949 µM) was 88.5%, the viability, T/C (second compound 0.949 µM, first compound 0.03 µM) was 17.4% and the viability, T/C (second compound 3 µM, first compound 94.9 pM) was 106%. The viability, T/C (second compound 3 µM, first compound 0.0003 µM) was 107%, the viability, T/C (second compound 3 µM, first compound 0.000949 µM) was 110% and the viability, T/C (second compound 3 µM, first compound 0.003 µM) was 116%. The outcome (second compound 3 µM, first compound 0.00949 µM) was “inactive”, the viability, T/C (second compound 3 µM, first compound 0.03 µM) was 9.28% and the viability, T/C (second compound 9.49 µM, first compound 94.9 pM) was 94.7%. It also gave a viability, T/C (second compound 9.49 µM, first compound 0.0003 µM) of 114%, a viability, T/C (second compound 9.49 µM, first compound 0.000949 µM) of 106% and a viability, T/C (second compound 9.49 µM, first compound 0.003 µM) of 108%. For the same compound, the viability, T/C (second compound 9.49 µM, first compound 0.00949 µM) was 97.7%, the viability, T/C (second compound 9.49 µM, first compound 0.03 µM) was 6.45% and the viability, T/C (second compound 30 µM, first compound 94.9 pM) was 81.1%. The viability, T/C (second compound 30 µM, first compound 0.0003 µM) was 96.6%, the viability, T/C (second compound 30 µM, first compound 0.000949 µM) was 97.3% and the viability, T/C (second compound 30 µM, first compound 0.003 µM) was 81.4%. For the same compound, the viability, T/C (second compound 30 µM, first compound 0.00949 µM) was 65.3% and the viability, T/C (second compound 30 µM, first compound 0.03 µM) was 2.95%.
In the case of CC(C)CC(NC(=O)C(Cc1ccccc1)NC(=O)c1cnccn1)B(O)O (stereo not given) + CC(C)NCC(C(=O)N1CCN(c2ncnc3c2C(C)CC3O)CC1)c1ccc(Cl)cc1, the IC50 (second compound 0.3 µM) is reported as > 10 nM, the IC50 (second compound 0.949 µM) is reported as > 10 nM and the IC50 (second compound 3 µM) is reported as > 10 nM. The IC50 (second compound 9.49 µM) was > 10 nM, the IC50 (second compound 30 µM) was > 10 nM and the viability, T/C (second compound 0.3 µM, first compound 31.6 pM) was 118%. For the same compound, the viability, T/C (second compound 0.3 µM, first compound 0.0001 µM) was 124%, the viability, T/C (second compound 0.3 µM, first compound 0.000316 µM) was 109% and the viability, T/C (second compound 0.3 µM, first compound 0.001 µM) was 112%. It also gave a viability, T/C (second compound 0.3 µM, first compound 0.00316 µM) of 103%, a viability, T/C (second compound 0.3 µM, first compound 0.01 µM) of 79.9% and a viability, T/C (second compound 0.949 µM, first compound 31.6 pM) of 112%. For the same compound, the viability, T/C (second compound 0.949 µM, first compound 0.0001 µM) was 114%, the viability, T/C (second compound 0.949 µM, first compound 0.000316 µM) was 101% and the viability, T/C (second compound 0.949 µM, first compound 0.001 µM) was 107%. For the same compound, the viability, T/C (second compound 0.949 µM, first compound 0.00316 µM) was 103%, the viability, T/C (second compound 0.949 µM, first compound 0.01 µM) was 87.9% and the viability, T/C (second compound 3 µM, first compound 31.6 pM) was 108%. It also gave a viability, T/C (second compound 3 µM, first compound 0.0001 µM) of 114%, a viability, T/C (second compound 3 µM, first compound 0.000316 µM) of 110% and a viability, T/C (second compound 3 µM, first compound 0.001 µM) of 109%. For the same compound, the viability, T/C (second compound 3 µM, first compound 0.00316 µM) was 111%, the viability, T/C (second compound 3 µM, first compound 0.01 µM) was 86.6% and the viability, T/C (second compound 9.49 µM, first compound 31.6 pM) was 106%. For the same compound, the viability, T/C (second compound 9.49 µM, first compound 0.0001 µM) was 110%, the viability, T/C (second compound 9.49 µM, first compound 0.000316 µM) was 112% and the viability, T/C (second compound 9.49 µM, first compound 0.001 µM) was 104%. The viability, T/C (second compound 9.49 µM, first compound 0.00316 µM) was 99%, the viability, T/C (second compound 9.49 µM, first compound 0.01 µM) was 81.4% and the viability, T/C (second compound 30 µM, first compound 31.6 pM) was 90.3%. The viability, T/C (second compound 30 µM, first compound 0.0001 µM) was 98.9%, the viability, T/C (second compound 30 µM, first compound 0.000316 µM) was 94.4% and the viability, T/C (second compound 30 µM, first compound 0.001 µM) was 89%. The viability, T/C (second compound 30 µM, first compound 0.00316 µM) was 85.7% and the viability, T/C (second compound 30 µM, first compound 0.01 µM) was 71%.
